Test system: Onchocerca gutturosa adult male worms
Assay: Onchocerciasis in vitro screening model Onchocerca gutturosa (worm motility score and MTT/formazan colorimetry)
Conditions: Onchocerca gutturosa, read-out: O. gutt Act class

| SMILES | IC50 |
| --- | --- |
| FC(F)(F)c1ccnc(Nc2nc(-c3ccc(OC4CCOCC4)cn3)cs2)c1 [Example 104, 4-(5-(tetrahydro-2H-pyran-4-yloxy)pyridin-2-yl)-N-(4-(trifluoromethyl)pyridin-2-yl)thiazol-2-amine] | < 200 nM |
| O=C(c1sc(Nc2cc(C(F)(F)F)ccn2)nc1-c1ccccn1)N1CCCC1 [Example 207, (4-(pyridin-2-yl)-2-(4-(trifluoromethyl)pyridin-2-ylamino)thiazol-5-yl)(pyrrolidin-1-yl)methanone] | < 200 nM |
| O=C(c1ccnc(Nc2nc(-c3ccccn3)cs2)c1)N1CC(F)(F)C1 [Example 153, (3,3-difluoroazetidin-1-yl)(2-(4-(pyridin-2-yl)thiazol-2-ylamino)pyridin-4-yl)methanone] | < 200 nM |
| c1ccc(-c2csc(Nc3cc(C4CCC4)ccn3)n2)nc1 [Example 168, N-(4-cyclobutyl-pyridin-2-yl)-4-(pyridin-2-yl)thiazol-2-amine] | < 200 nM |
| c1ccc(Nc2nc(-c3ccccn3)cs2)nc1 [Example 214, N,4-di(pyridin-2-yl)thiazol-2-amine] | 200 to 500 nM |
| c1ccc(-c2csc(Nc3cc(-c4ncccn4)ccn3)n2)nc1 [Example 174, 4-(pyridin-2-yl)-N-(4-(pyrimidin-2-yl)pyridin-2-yl)thiazol-2-amine] | 200 to 500 nM |
| O=C(N1CCN(c2ccc(Nc3nc(-c4ccccn4)cs3)nc2)CC1)C1(C(F)(F)F)CC1 [Example 155, (4-(6-(4-(pyridin-2-yl)thiazol-2-ylamino)pyridin-3-yl)piperazin-1-yl)(1-(trifluoromethyl)cyclopropyl) methanone] | < 200 nM |
| Cc1sc(Nc2cc(C(F)(F)F)ccn2)nc1-c1ccccn1 [Example 162, 5-methyl-4-(pyridin-2-yl)-N-(4-(trifluoromethyl)pyridin-2-yl) thiazol-2-amine] | < 200 nM |
| OCc1sc(Nc2cc(F)ccn2)nc1-c1ccccn1 [Example 193, (2-(4-fluoropyridin-2-ylamino)-4-(pyridin-2-yl)thiazol-5-yl)methanol] | < 200 nM |
| CCOc1cnc(-c2csc(Nc3ncccc3C)n2)c(C)c1 [Example 75, 4-(5-ethoxy-3-methylpyridin-2-yl)-N-(3-methylpyridin-2-yl)thiazol-2-amine] | < 200 nM |
| CCCCc1ccnc(Nc2nc(-c3ccccn3)cs2)c1 [Example 167, N-(4-butylpyridin-2-yl)-4-(pyridin-2-yl)thiazol-2-amine] | < 200 nM |
| c1ccc(-c2ccnc(Nc3ncc(-c4ccccn4)o3)c2)cc1 [Example 229, N-(4-phenylpyridin-2-yl)-5-(pyridin-2-yl)oxazol-2-amine] | 500 to 5000 nM |
| O=C(O)C1CCCN(c2ccc(Nc3nc(-c4ccccn4)cs3)nc2)C1 (centres unmarked) [Example 157, 1-(6-(4-(pyridin-2-yl)thiazol-2-ylamino)pyridin-3-yl)piperidine-3-carboxylic acid] | 500 to 5000 nM |
| FC(F)(F)c1ccnc(Nc2nc(-c3ccccn3)c(CN3CCCC3)s2)c1 [Example 197, 4-(pyridin-2-yl)-5-(pyrrolidin-1-ylmethyl)-N-(4-(trifluoromethyl)pyridin-2-yl)thiazol-2-amine] | 500 to 5000 nM |
| CCc1sc(Nc2cccc(C(F)(F)F)n2)nc1-c1ccccn1 [Example 194, 5-ethyl-4-(pyridin-2-yl)-N-(6-(trifluoromethyl)pyridin-2-yl)thiazol-2-amine] | 500 to 5000 nM |
| CCOc1ccc(-c2csc(Nc3ncc(C(F)(F)F)cc3C)n2)nc1 [Example 84, 4-(5-ethoxypyridin-2-yl)-N-(3-methyl-5-(trifluoromethyl)pyridin-2-yl)thiazol-2-amine] | 200 to 500 nM |

| SMILES | IC50 |
| --- | --- |
| CC(=O)N(C)c1cc(C(F)(F)F)cnc1Nc1nc(-c2cc(OC3COC3)ccn2)cs1 [Example 73, N-methyl-N-(2-(4-(4-(oxetan-3-yloxy)pyridin-2-yl)thiazol-2-ylamino)-5-(trifluoromethyl)pyridin-3-yl)acetamide] | 200 to 500 nM |
| O=C(c1sc(Nc2cc(C(F)(F)F)ccn2)nc1-c1ccccn1)N1CCC2(CC1)OCCO2 [Example 190, (4-(pyridin-2-yl)-2-(4-(trifluoromethyl)pyridin-2-ylamino)thiazol-5-yl)(1,4-dioxa-8-azaspiro[4.5]decan-8-yl)methanone] | 500 to 5000 nM |
| c1ccc(-c2csc(Nc3ccc4cc[nH]c4n3)n2)nc1 [Example 134, 4-(pyridin-2-yl)-N-(1H-pyrrolo [2,3-b]pyridin-6-yl)thiazol-2-amine] | < 200 nM |
| Cc1ccnc(Nc2nc(-c3ccccn3)c(CN3CCCC3)s2)c1 [Example 185, N-(4-methylpyridin-2-yl)-4-(pyridin-2-yl)-5-(pyrrolidin-1-ylmethyl) thiazol-2-amine] | 200 to 500 nM |
| COc1ccc(-c2cc(Nc3cc(OC(C)C)ccn3)n(C)n2)nc1 [Example 233, 4-isopropoxy-N-(3-(5-methoxypyridin-2-yl)-1-methyl-1H-pyrazol-5-yl)pyridin-2-amine] | 500 to 5000 nM |
| O=C(NCCN1CCCC1)c1ccnc(Nc2nc(-c3ccccn3)cs2)c1 [Example 152, 2-(4-(pyridin-2-yl)thiazol-2-ylamino)-N-(2-(pyrrolidin-1-yl)ethyl) isonicotinamide] | 200 to 500 nM |
| Cc1ccnc(Nc2nc(-c3ccccn3)c(CN3CCC3)s2)c1 [Example 183, 5-(azetidin-1-ylmethyl)-N-(4-methylpyridin-2-yl)-4-(pyridin-2-yl)thiazol-2-amine] | < 200 nM |
| CC(C)Oc1ccc(-c2cnc(Nc3ncccc3N(C)C)o2)nc1 [Example 231, N2-(5-(5-isopropoxy-pyridin-2-yl)oxazol-2-yl)-N3,N3-dimethyl-pyridine-2,3-diamine] | 500 to 5000 nM |
| O=C(c1ccnc(Nc2nc(-c3ccccn3)cs2)c1)N1CCOCC1 [Example 143, morpholino (2-(4-(pyridin-2-yl)thiazol-2-ylamino)pyridin-4-yl)methanone] | 200 to 500 nM |
| CC(=O)N(C)c1cc(C(F)(F)F)cnc1Nc1nc(-c2ccc(OC(C)C)cn2)cs1 [Example 93, N-(2-(4-(5-isopropoxypyridin-2-yl)thiazol-2-ylamino)-5-(trifluoromethyl)pyridin-3-yl)-N-methylacetamide] | < 200 nM |
| c1ccc(-c2ccnc(Nc3nc(-c4ccccn4)cs3)c2)cc1 [Example 126, N-(4-phenylpyridin-2-yl)-4-(pyridin-2-yl)thiazol-2-amine] | < 200 nM |
| c1ccc(-c2ccnc(Nc3cc(-c4ccccn4)n[nH]3)c2)cc1 [Example 238, 4-phenyl-N-(3-(pyridin-2-yl)-1H-pyrazol-5-yl)pyridin-2-amine] | < 200 nM |
| Cc1ccnc(Nc2nc(-c3ncccc3C)c(-c3ccccc3)s2)c1 [Example 110, 4-(3-methylpyridin-2-yl)-N-(4-methylpyridin-2-yl)-5-phenylthiazol-2-amine] | 500 to 5000 nM |
| c1ccc(-c2ccc(Nc3nc(-c4ccccn4)cs3)nc2)cc1 [Example 221, N-(5-phenylpyridin-2-yl)-4-(pyridin-2-yl)thiazol-2-amine] | < 200 nM |
| COCCNC(=O)c1ccnc(Nc2nc(-c3ccccn3)cs2)c1 [Example 142, N-(2-methoxyethyl)-2-(4-(pyridin-2-yl)thiazol-2-ylamino) isonicotinamide] | 200 to 500 nM |
| Fc1ccc(-c2csc(Nc3cc(C(F)(F)F)c(Br)cn3)n2)nc1 [Example 109, N-(5-bromo-4-(trifluoromethyl)pyridin-2-yl)-4-(5-fluoropyridin-2-yl)thiazol-2-amine] | 200 to 500 nM |
